Measurements as given in BindingDB's records for doi:10.1016/j.bmcl.2013.03.113 (Vanderbilt University Medical Center, 2013).

Target: T1, Bone morphogenetic protein 4 (Mus musculus, UniProt P21275)
T1 sequence (P21275 whole entry): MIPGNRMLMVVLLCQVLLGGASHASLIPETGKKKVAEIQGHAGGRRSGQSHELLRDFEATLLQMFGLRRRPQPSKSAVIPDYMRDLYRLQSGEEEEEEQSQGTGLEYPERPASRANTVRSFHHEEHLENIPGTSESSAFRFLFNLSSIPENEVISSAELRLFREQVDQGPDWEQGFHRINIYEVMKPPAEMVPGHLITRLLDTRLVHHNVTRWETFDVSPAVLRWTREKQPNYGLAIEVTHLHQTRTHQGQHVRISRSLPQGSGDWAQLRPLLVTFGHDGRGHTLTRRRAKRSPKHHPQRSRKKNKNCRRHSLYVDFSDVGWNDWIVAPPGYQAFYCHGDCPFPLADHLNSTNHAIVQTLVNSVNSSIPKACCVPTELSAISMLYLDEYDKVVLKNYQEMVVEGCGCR
Assay: Inhibition of BMP4 in mouse C2C12BRA cells after 14 hrs by luciferase reporter gene assay

IC50 | Structure (SMILES)
418 nM | c1ccc2c(-c3cnn4cc(-c5ccc(N6CCOCC6)cc5)cnc34)csc2c1
529 nM | Clc1cc(-c2cnn3cc(-c4ccc(N5CCOCC5)cc4)cnc23)ccn1
